For 31 molecules, IC50 results are on record in patent US9586951B2 (FUJIFILM Corporation, priority 2013, dated 2017).

In one assay the target is T1, ATM (Homo sapiens, UniProt Q13315).
T1 construct: detecting phosphorylation of Chk2 in a human non-small cell lung cancer cell line NCI-H460 (ATCC company); host or cells: NCI-H460 human non-small cell lung cancer cells
T1 sequence (Q13315 whole entry): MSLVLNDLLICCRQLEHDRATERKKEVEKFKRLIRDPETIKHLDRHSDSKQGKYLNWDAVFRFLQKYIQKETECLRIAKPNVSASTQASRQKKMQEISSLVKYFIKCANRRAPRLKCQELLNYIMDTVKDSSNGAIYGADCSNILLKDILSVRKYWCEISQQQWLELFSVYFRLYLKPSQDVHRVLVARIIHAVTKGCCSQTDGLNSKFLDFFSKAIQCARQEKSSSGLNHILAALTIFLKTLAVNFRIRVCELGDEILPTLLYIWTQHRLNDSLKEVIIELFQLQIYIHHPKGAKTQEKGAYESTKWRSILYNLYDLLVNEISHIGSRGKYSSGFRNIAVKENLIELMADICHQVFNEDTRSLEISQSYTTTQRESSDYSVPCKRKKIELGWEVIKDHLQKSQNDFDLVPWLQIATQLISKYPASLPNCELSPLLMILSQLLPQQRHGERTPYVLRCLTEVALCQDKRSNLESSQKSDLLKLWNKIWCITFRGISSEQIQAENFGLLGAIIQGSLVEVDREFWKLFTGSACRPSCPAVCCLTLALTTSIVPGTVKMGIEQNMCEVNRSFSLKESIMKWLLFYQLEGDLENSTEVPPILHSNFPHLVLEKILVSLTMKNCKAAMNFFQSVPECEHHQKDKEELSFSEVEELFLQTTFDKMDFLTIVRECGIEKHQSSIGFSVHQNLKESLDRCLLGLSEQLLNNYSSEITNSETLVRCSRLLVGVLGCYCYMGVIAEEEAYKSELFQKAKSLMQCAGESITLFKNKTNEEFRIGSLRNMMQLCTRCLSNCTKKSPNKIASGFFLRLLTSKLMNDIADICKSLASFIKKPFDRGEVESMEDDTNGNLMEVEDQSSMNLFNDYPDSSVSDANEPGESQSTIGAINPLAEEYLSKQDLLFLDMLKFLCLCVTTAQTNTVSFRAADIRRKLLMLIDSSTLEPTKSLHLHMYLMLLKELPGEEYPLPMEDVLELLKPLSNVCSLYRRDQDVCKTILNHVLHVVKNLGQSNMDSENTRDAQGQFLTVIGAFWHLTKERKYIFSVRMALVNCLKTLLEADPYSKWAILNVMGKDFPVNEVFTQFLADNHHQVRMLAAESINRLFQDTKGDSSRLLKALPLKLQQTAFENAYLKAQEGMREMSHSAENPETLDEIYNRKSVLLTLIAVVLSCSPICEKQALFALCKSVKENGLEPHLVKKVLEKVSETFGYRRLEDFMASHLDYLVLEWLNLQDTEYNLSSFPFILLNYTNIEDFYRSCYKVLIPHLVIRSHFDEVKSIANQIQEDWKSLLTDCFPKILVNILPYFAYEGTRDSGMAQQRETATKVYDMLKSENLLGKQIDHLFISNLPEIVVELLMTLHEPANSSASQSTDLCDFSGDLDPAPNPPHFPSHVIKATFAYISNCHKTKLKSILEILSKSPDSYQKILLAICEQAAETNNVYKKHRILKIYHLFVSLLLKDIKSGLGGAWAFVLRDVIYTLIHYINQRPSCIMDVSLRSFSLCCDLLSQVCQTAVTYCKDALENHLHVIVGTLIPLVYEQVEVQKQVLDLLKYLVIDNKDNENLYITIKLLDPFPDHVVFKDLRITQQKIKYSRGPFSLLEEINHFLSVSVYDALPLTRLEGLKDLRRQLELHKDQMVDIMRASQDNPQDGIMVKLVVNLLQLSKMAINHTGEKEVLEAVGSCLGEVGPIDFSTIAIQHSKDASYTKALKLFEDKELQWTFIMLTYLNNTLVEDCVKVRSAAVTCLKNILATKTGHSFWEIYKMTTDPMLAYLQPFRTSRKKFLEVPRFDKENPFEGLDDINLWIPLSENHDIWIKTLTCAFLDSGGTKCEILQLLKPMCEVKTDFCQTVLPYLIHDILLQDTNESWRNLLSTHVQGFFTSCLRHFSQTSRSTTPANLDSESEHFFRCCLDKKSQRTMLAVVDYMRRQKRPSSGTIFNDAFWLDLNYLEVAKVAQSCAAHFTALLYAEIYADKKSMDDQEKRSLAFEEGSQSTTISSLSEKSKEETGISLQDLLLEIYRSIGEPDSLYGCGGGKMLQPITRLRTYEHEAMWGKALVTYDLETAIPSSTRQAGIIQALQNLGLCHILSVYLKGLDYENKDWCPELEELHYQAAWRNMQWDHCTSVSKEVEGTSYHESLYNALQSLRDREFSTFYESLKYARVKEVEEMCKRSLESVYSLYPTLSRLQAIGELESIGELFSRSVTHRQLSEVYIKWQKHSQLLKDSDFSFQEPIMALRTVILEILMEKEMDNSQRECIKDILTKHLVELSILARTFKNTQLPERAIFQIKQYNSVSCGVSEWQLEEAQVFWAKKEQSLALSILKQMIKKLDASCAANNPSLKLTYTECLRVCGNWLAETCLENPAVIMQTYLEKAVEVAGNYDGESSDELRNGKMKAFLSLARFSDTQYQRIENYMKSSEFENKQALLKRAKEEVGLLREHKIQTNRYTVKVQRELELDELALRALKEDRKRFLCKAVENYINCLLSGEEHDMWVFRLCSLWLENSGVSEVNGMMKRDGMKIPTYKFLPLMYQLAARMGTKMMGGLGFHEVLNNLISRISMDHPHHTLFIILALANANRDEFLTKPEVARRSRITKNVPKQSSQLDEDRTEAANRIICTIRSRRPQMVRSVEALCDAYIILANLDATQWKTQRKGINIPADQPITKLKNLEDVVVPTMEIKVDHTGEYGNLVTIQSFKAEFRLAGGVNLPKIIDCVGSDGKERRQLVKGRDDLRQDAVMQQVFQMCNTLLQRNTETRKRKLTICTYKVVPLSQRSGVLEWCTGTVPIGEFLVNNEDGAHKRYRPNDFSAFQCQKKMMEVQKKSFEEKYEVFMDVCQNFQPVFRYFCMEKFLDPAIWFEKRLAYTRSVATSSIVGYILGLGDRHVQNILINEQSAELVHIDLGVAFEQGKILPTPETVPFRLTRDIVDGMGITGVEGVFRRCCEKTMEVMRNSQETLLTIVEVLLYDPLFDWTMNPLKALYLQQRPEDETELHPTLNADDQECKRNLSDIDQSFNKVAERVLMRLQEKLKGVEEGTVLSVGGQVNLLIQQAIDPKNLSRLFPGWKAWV
The assay is described as follows: ATM inhibition test (phosphorylation of Chk2 generated by ionizing radiation, AlphaScreen SureFire). It is filed as cell-based. The conditions noted are these: ATM inhibitory activity, phosphorylated Chk2 in NCI-H460 cells, ionizing radiation 8Gy, 1 hour after test compound treatment. An outline of the steps:
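NCI-H460 cells treated with compound for 1 hour, then irradiated with 8Gy and incubated 1 hour at 37° C. Phospho-Chk2 measured by AlphaScreen SureFire. Inhibition ratio calculated relative to untreated irradiated and non-irradiated wells.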
For orientation: Alpha assays give light when donor and acceptor beads are brought close together.
`O=c1cc(N2CCOCC2)cc(-c2cccc3c2Sc2ccc(N4CC4CN4CCOCC4)cc2S3)[nH]1` (stereo not shown) [Example 1-38, 4-morpholino-6-(7-(2-(morpholinomethyl)aziridin-1-yl)thianthren-1-yl)pyridin-2(1H)-one] displayed an IC50 of 0.1 to 0.5 µM.

The assay is the same for the next values; noted with them: phosphorylated Chk2 in NCI-H460 cells, ionizing radiation 8Gy, 1 hour after test compound treatment; read-out: ATM inhibitory activity.
For the molecule `CC(Nc1ccc2c(c1)Cc1cccc(-c3cc(N4CCOCC4)cc(=O)[nH]3)c1O2)c1cccc(F)n1` (single isomer, unassigned) [Example 2-14-87-2, 6-(7-((1-(6-fluoropyridin-2-yl)ethyl)amino)-9H-xanthen-4-yl)-4-morpholinopyridin-2(1H)-one], the IC50 was in the range of 0.1 to 0.5 µM.
Still for that read-out and setting: then `O=c1cc(N2CCOCC2)cc(-c2cccc3c2Oc2ccc(NCc4cncc(-c5cccnc5)c4)cc2C3)[nH]1` [Example 2-2-57, 6-(7-(([3,3′-Bipyridin]-5-ylmethyl)amino)-9H-xanthen-4-yl)-4-morpholino pyridin-2 (1H)-one], with 0.1 to 0.5 µM.
For `Cc1ccc(C(Nc2ccc3c(c2)Sc2cccc(-c4cc(N5CCOCC5)cc(=O)[nH]4)c2S3)C2CCCCC2)nc1` (stereo not shown) [Example 1-12-126, 6-(7-((Cyclohexyl(5-methylpyridin-2-yl)methyl)amino)thianthren-1-yl)-4-morpholino pyridin-2(1H)-one], the IC50 was in the range of 0.5 to 2 µM.
The same measure, in the same setting: then `CC1CCCN(CC(CO)Nc2ccc3c(c2)Sc2cccc(-c4cc(N5CCOCC5)cc(=O)[nH]4)c2S3)C1` (stereo not shown) [Example 1-37-1, 6-(7-((1-hydroxy-3-(3-methylpiperidin-1-yl)propan-2-yl)amino)thianthren-1-yl)-4-morpholinopyridin-2(1H)-one], with 0.1 to 0.5 µM.
On the same count and under the same terms, then `Cc1ccc(CNc2ccc3c(c2)Sc2cccc(-c4cc(N5CCOCC5)cc(=O)[nH]4)c2S3)s1` [Example 1-12-57, 6-(7-(((5-Methylthiophen-2-yl)methyl)amino)thianthren-1-yl)-4-morpholino pyridin-2 (1H)-one], with 0.1 to 0.5 µM; and `Cc1cccc(C(CCN2CCCC2)Nc2ccc3c(c2)Sc2cccc(-c4cc(N5CCOCC5)cc(=O)[nH]4)c2S3)n1` (stereo not shown) [Example 1-34-6, 6-(7-((1-(6-Methylpyridin-2-yl)-3-(pyrrolidin-1-yl)propyl)amino)thianthren-1-yl)-4-morpholino pyridin-2(1H)-one], with 0.1 to 0.5 µM; and `O=c1cc(N2CCOCC2)cc(-c2cccc3c2Oc2ccc(NC4CCN(Cc5ccccn5)CC4)cc2C3)[nH]1` [Example 2-28-1, 4-Morpholino-6-(7-((1-(pyridin-2-ylmethyl)piperidin-4-yl)amino)-9H-xanthen-4-yl)pyridin-2 (1H)-one], with 0.5 to 2 µM.
The same measure, in the same setting: as for `CNc1cncc(CNc2ccc3c(c2)Cc2cccc(-c4cc(N5CCOCC5)cc(=O)[nH]4)c2O3)c1` [Example 2-21-4, 6-(7-(((5-(Methylamino)pyridin-3-yl)methyl)amino)-9H-xanthen-4-yl)-4-morpholino pyridin-2(1H)-one], the figure is 0.1 to 0.5 µM; as for `Cc1cnc(C(CCN(C)C)Nc2ccc3c(c2)Sc2cccc(-c4cc(=O)cc(N5CCOCC5)o4)c2O3)cn1` (single isomer, unassigned) [Example 10-9, 2-(8-((3-(Dimethylamino)-1-(5-methylpyrazin-2-yl)propyl)amino)phenoxathiin-4-yl)-6-morpholino-4H-pyran-4-one], < 0.1 µM; as for `CCOC(=O)C(C)Nc1ccc2c(c1)Sc1cccc(-c3cc(N4CCOCC4)cc(=O)[nH]3)c1S2` (stereo not shown) [Example 1-12-55, Ethyl 2-((6-(4-morpholino-6-oxo-1,6-dihydropyridin-2-yl)thianthren-2-yl)amino) propanoate], 0.1 to 0.5 µM.
`Cc1ccc(CNc2ccc3c(c2)Cc2ccnc(-c4cc(N5CCOCC5)cc(=O)[nH]4)c2O3)nc1` [Example 2-42-2, 6-(7-(((5-Methylpyridin-2-yl)methyl)amino)-5H-chromeno[2,3-c]pyridin-1-yl)-4-morpholinopyridin-2(1H)-one]: the IC50 fell in the range of 0.1 to 0.5 µM.
Same read-out and setting: then `O=c1cc(N2CCOCC2)cc(-c2cccc3c2Oc2ccc(NCc4cncc(-c5cccnc5)c4)cc2S3)[nH]1` [Example 4-4-10, 6-(8-(([3,3′-Bipyridin)-5-ylmethyl)amino)phenoxathiin-4-yl)-4-morpholino pyridin-2(1H)-one], with 0.1 to 0.5 µM; and `CN(C)c1ccc(CNc2ccc3c(c2)Cc2cccc(-c4cc(N5CCOCC5)cc(=O)[nH]4)c2O3)cn1` [Example 2-2-8, 6-(7-(((6-(Dimethylamino)pyridin-3-yl)methyl)amino)-9H-xanthen-4-yl)-4-morpholino pyridin-2(1H)-one], with 0.1 to 0.5 µM.
Same read-out and setting: then `O=c1cc(N2CCOCC2)cc(-c2cccc3c2Oc2ccc(NCc4cncc(F)c4)cc2C3)[nH]1` [Example 2-2-10, 6-(7-(((5-Fluoropyridin-3-yl)methyl)amino)-9H-xanthen-4-yl)-4-morpholino pyridin-2 (1H)-one], with 0.1 to 0.5 µM; and `CNc1ncc(CN2CCC(Nc3ccc4c(c3)Cc3cccc(-c5cc(N6CCOCC6)cc(=O)[nH]5)c3O4)CC2)cn1` [Example 2-28-12, 6-(7-((1-((2-(Methylamino)pyrimidin-5-yl)methyl)piperidin-4-yl)amino)-9H-xanthen-4-yl)-4-morpholino pyridin-2 (1H)-one], with 0.5 to 2 µM.
The same measure, in the same setting: then `O=c1cc(N2CCOCC2)cc(-c2cccc3c2Oc2ccc(NCc4ccc(-n5cccn5)nc4)cc2C3)[nH]1` [Example 2-2-31, 6-(7-(((6-(1H-Pyrazol-1-yl)pyridin-3-yl)methyl)amino)-9H-xanthen-4-yl)-4-morpholino pyridin-2(1H)-one], with 0.1 to 0.5 µM; and `COC[C@H](CN1CCOCC1)Nc1ccc2c(c1)Sc1cccc(-c3cc(N4CCOCC4)cc(=O)[nH]3)c1O2` [Example 10-6, (S)-6-(8-((1-methoxy-3-morpholinopropan-2-yl)amino)phenoxathiin-4-yl)-4-morpholinopyridin-2(1H)-one], with 0.1 to 0.5 µM.
Take `CC(CN1CCC(F)(F)C1)Nc1ccc2c(c1)Sc1cccc(-c3cc(N4CCOCC4)cc(=O)[nH]3)c1S2` (stereo not shown) [Example 1-43-7, 6-(7-((1-(3,3-Difluoropyrrolidin-1-yl)propan-2-yl)amino)thianthren-1-yl)-4-morpholino pyridin-2(1H)-one]: the IC50 is 0.1 to 0.5 µM.
As to `CCNc1cccc(CNc2ccc3c(c2)Cc2cccc(-c4cc(N5CCOCC5)cc(=O)[nH]4)c2O3)n1` [Example 2-6-2, 6-(7-(((6-(Ethylamino)pyridin-2-yl)methyl)amino)-9H-xanthen-4-yl)-4-morpholinopyridin-2(1H)-one], the IC50 was 0.1 to 0.5 µM.
`CN(C)c1nccc(CNc2ccc3c(c2)Sc2cccc(-c4cc(N5CCOCC5)cc(=O)[nH]4)c2S3)n1` [Example 1-12-40, 6-(7-(((2-(Dimethylamino)pyrimidin-4-yl)methyl)amino)thianthren-1-yl)-4-morpholino pyridin-2(1H)-one]: the IC50 was in the range of 0.1 to 0.5 µM.
With `CC(C)Nc1cncc(CNc2ccc3c(c2)Sc2cccc(-c4cc(N5CCOCC5)cc(=O)[nH]4)c2O3)c1` [Example 4-8-26], the IC50 was in the range of 0.1 to 0.5 µM.
Still for that read-out and setting: as for `Cc1cnc(C(CCN(C)CCF)Nc2ccc3c(c2)Sc2cccc(-c4cc(N5CCOCC5)cc(=O)[nH]4)c2S3)cn1` (single isomer, unassigned) [Example 10-3-6, 6-(7-((3-((2-Fluoroethyl) (methyl)amino)-1-(5-methylpyrazin-2-yl)propyl)amino)thianthren-1-yl)-4-morpholino pyridin-2(1H)-onc], the figure is < 0.1 µM; as for `O=c1cc(N2CCOCC2)cc(-c2cccc3c2Sc2ccc(NCc4ccno4)cc2C3)[nH]1` [Example 3-6, 6-(7-((isoxazol-5-ylmethyl)amino)-9H-thioxanthen-4-yl)-4-morpholinopyridin-2(1H)-one], 0.5 to 2 µM.
For `CCN(CC)CC(Nc1ccc2c(c1)Sc1cccc(-c3cc(N4CCOCC4)cc(=O)[nH]3)c1S2)c1ncc(C)cn1` (stereo not shown) [Example 1-12-106, 6-(7-((2-(Diethylamino)-1-(5-methylpyrimidin-2-yl)ethyl)amino)thianthren-1-yl)-4-morpholino pyridin-2(1H)-one], the IC50 was 0.1 to 0.5 µM.
On the same count and under the same terms, then `Nc1ccc2c(c1)Cc1cc(F)cc(-c3cc(N4CCOCC4)cc(=O)[nH]3)c1O2` [Example 2-48-1, 6-(7-amino-2-fluoro-9H-xanthen-4-yl)-4-morpholinopyridin-2(1H)-one], with 0.5 to 2 µM; and `CCNCC(Nc1ccc2c(c1)Sc1cccc(-c3cc(N4CCOCC4)cc(=O)[nH]3)c1S2)c1cccc(C)n1` (stereo not shown) [Example 1-34-1, 6-(7-((2-(ethylamino)-1-(6-methylpyridin-2-yl)ethyl)amino)thianthren-1-yl)-4-morpholinopyridin-2(1H)-one], with 0.1 to 0.5 µM.
Still for that read-out and setting: then `O=c1cc(N2CCOCC2)cc(-c2cccc3c2Sc2ccc(NC(CO)CN4CCCC4)cc2S3)[nH]1` (stereo not shown) [Example 1-37-3, 6-(7-((1-Hydroxy-3-(pyrrolidin-1-yl)propan-2-yl)amino)thianthren-1-yl)-4-morpholino pyridin-2(1H)-one], with 0.5 to 2 µM; and `O=c1cc(N2CCOCC2)cc(-c2cccc3c2Oc2ccc(NCc4ccnc(Cl)c4)cc2S3)[nH]1` [Example 4-8-14, 6-(8-(((2-Chloropyridin-4-yl)methyl)amino)phenoxathiin-4-yl)-4-morpholino pyridin-2(1H)-one], with 0.1 to 0.5 µM; and `O=C(N[C@H]1CC[C@H](Nc2ccc3c(c2)Cc2cccc(-c4cc(N5CCOCC5)cc(=O)[nH]4)c2O3)CC1)OCc1ccccc1` [Example 2-2-54, Benzyl ((trans)-4-((5-(4-morpholino-6-oxo-1,6-dihydropyridin-2-yl)-9H-xanthen-2-yl)amino)cyclohexyl)carbamate], with 0.5 to 2 µM.
Regarding `Cc1ccnc(C(CO)Nc2ccc3c(c2)Cc2cccc(-c4cc(N5CCOCC5)cc(=O)[nH]4)c2O3)c1` (racemic) [Example 2-14-39, 6-(7-((2-Hydroxy-1-(4-methylpyridin-2-yl)ethyl)amino)-9H-xanthen-4-yl)-4-morpholino pyridin-2 (1H)-one], the IC50 fell in the range of 0.1 to 0.5 µM.
